Source: US10213427B2 (Incyte Corporation, priority 2010, dated 2019)

Target: FGFR3 enzyme (Millipore) (Homo sapiens (Human), UniProt P22607)
Assay: FGFR3 Enzymatic Assay
Type: biochemical
Settings: FRET peptide phosphorylation, 140 μM ATP
Description: The inhibitor potency of compounds of the invention was measured in an enzyme assay that measures peptide phosphorylation using FRET measurements to detect product formation. Inhibitors were serially diluted in DMSO and a volume of 0.5 μL was transferred to the wells of a 384-well plate. A 10 μL volume of FGFR3 enzyme (Millipore) diluted in assay buffer (50 mM HEPES, 10 mM MgCl2, 1 mM EGTA, 0.01% Tween-20, 5 mM DTT, pH 7.5) was added to the plate and pre-incubated for 5-10 minutes. Appropriate controls (enzyme blank and enzyme with no inhibitor) were included on the plate. […] The plate was incubated at 25° C. for 1 hr. […] The plate was allowed to equilibrate for ˜1 hr before scanning the wells on a PheraStar plate reader.
GraphPad prism3 was used to analyze the data. The IC50 values were derived by fitting the data to the equation for a sigmoidal dose-response with a variable slope. Y=Bottom+(Top−Bottom)/(1+10^((Log IC50−X)*HillSlope)) where X is the logarithm of concentration and Y is the response.

FGFR3 enzyme (Millipore), sequence (P22607 23-806): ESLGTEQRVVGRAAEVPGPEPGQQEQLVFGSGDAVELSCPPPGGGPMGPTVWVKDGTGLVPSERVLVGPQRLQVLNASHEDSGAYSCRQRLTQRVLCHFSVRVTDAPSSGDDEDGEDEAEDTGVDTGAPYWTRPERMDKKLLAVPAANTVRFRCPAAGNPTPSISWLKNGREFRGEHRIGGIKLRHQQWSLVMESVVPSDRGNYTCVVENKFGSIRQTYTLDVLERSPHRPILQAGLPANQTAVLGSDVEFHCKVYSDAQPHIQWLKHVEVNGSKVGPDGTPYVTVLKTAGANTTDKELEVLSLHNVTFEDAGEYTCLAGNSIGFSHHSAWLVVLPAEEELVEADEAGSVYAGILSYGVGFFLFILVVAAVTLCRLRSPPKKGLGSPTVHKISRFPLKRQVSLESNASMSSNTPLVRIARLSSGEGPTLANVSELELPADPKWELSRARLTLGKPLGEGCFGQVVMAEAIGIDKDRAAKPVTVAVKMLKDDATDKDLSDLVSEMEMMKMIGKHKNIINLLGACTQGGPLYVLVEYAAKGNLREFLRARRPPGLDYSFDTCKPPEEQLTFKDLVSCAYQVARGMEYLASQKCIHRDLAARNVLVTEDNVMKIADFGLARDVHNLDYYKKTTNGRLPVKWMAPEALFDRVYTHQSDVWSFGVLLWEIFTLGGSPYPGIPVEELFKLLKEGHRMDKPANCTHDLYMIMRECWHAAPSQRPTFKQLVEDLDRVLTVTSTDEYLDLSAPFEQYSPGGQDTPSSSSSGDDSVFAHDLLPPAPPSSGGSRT

IC50, < 10 nM:
Cn1ccc(S(=O)(=O)N2CCC(n3cc(-c4ccc5c(c4)ncn5-c4cccc(NC(=O)NCC(F)(F)F)c4)cn3)CC2)n1 [Example 24, N-{3-[5-(1-{1-[(1-Methyl-1H-pyrazol-3-yl)sulfonyl]piperidin-4-yl}-1H-pyrazol-4-yl)-1H-benzimidazol-1-yl]phenyl}-N′-(2,2,2-trifluoroethyl)urea]
O=C(NCC(F)(F)F)Nc1cccc(-n2cnc3cc(-c4cnn(C5CCN(C(=O)Nc6cccnc6)CC5)c4)ccc32)c1 [Example 25]
O=C(NCC(F)(F)F)Nc1cccc(-n2cnc3cc(-c4cnn(C5CCN(C(=O)N6CCCC6)CC5)c4)ccc32)c1 [Example 26, N-[3-(5-{t-[1-(Pyrrolidin-1-ylcarbonyl)piperidin-4-yl]-1H-pyrazol-4-yl}-1H-benzimidazol-1-yl)phenyl]-N′-(2,2,2-trifluoroethyl)urea]
O=C(NCC(F)(F)F)Nc1cccc(-n2cnc3cc(-c4cnn(C5CCN(C(=O)CC6CC6)CC5)c4)ccc32)c1 [Example 27, N-[3-(5-{1-[1-(Cyclopropylacetyl)piperidin-4-yl]-1H-pyrazol-4-yl}-1H-benzimidazol-1-yl)phenyl]-N′-(2,2,2-trifluoroethyl)urea]
N#CCC(=O)N1CCC(n2cc(-c3ccc4c(c3)ncn4-c3cccc(NC(=O)NCC(F)(F)F)c3)cn2)CC1 [Example 28, N-[3-(5-{1-[1-(Cyanoacetyl)piperidin-4-yl]-1H-pyrazol-4-yl}-1H-benzimidazol-1-yl)phenyl]-N′-(2,2,2-trifluoroethyl)urea]
O=C(NCC(F)(F)F)Nc1cccc(-n2cnc3cc(-c4cnn(C5CCN(C(=O)C6CCCO6)CC5)c4)ccc32)c1 (centres unmarked) [Example 29, N-[3-(5-{1-[1-(Tetrahydrofuran-2-ylcarbonyl)piperidin-4-yl]-1H-pyrazol-4-yl}-1H-benzimidazol-1-yl)phenyl]-N′-(2,2,2-trifluoroethyl)urea]
COCC(=O)N1CCC(n2cc(-c3cnn4c(-c5cccc(NC(=O)NCC(F)(F)F)c5)cnc4c3)cn2)CC1 [Example 30, N-[3-(7-{1-[1-(Methoxyacetyl)piperidin-4-yl]-1H-pyrazol-4-yl}imidazo[1,2-b]pyridazin-3-yl)phenyl]-N′-(2,2,2-trifluoroethyl)urea]
Cn1ccc(S(=O)(=O)N2CCC(n3cc(-c4cnn5c(-c6cccc(NC(=O)NCC(F)(F)F)c6)cnc5c4)cn3)CC2)n1 [Example 31, N-{3-[7-(1-{1-[(1-methyl-1H-pyrazol-3-yl)sulfonyl]piperidin-4-yl}-1H-pyrazol-4-yl)imidazo[1,2-b]pyridazin-3-yl]phenyl}-N′-(2,2,2-trifluoroethyl)urea]
Cn1cc(C(=O)N2CCC(n3cc(-c4cnn5c(-c6cccc(NC(=O)NCC(F)(F)F)c6)cnc5c4)cn3)CC2)cn1 [Example 32, N-{3-[7-(1-{1-[(1-Methyl-1H-pyrazol-4-yl)carbonyl]piperidin-4-yl}-1H-pyrazol-4-yl)imidazo[1,2-b]pyridazin-3-yl]phenyl}-N′-(2,2,2-trifluoroethyl)urea]
CN(C)CC(=O)N1CCC(n2cc(-c3cnn4c(-c5cccc(NC(=O)NCC(F)(F)F)c5)cnc4c3)cn2)CC1 [Example 33, N-{3-[7-(1-{1-[(Dimethylamino)acetyl]piperidin-4-yl}-1H-pyrazol-4-yl)imidazo[1,2-b]pyridazin-3-yl]phenyl}-N′-(2,2,2-trifluoroethyl)urea]
O=C(NCC(F)(F)F)Nc1cccc(-c2cnc3cc(-c4cnn(C5CCN(S(=O)(=O)Cc6ccccc6)CC5)c4)cnn23)c1 [Example 34, N-[3-(7-{1-[1-(Benzylsulfonyl)piperidin-4-yl]-1H-pyrazol-4-yl}imidazo[1,2-b]pyridazin-3-yl)phenyl]-N′-(2,2,2-trifluoroethyl)urea]
O=C(NCC(F)(F)F)Nc1cccc(-c2cnc3cc(-c4cnn(C5CCN(C(=O)CC6CCCC6)CC5)c4)cnn23)c1 [Example 35, N-[3-(7-{1-[1-(cyclopentylacetyl)piperidin-4-yl]-1H-pyrazol-4-yl}imidazo[1,2-b]pyridazin-3-yl)phenyl]-N′-(2,2,2-trifluoroethyl)urea]
O=C(NCC(F)(F)F)Nc1cccc(-c2cnc3cc(-c4cnn(C5CCN(C(=O)N6CCCC6)CC5)c4)cnn23)c1 [Example 36, N-[3-(7-{1-[1-(Pyrrolidin-1-ylcarbonyl)piperidin-4-yl]-1H-pyrazol-4-yl}imidazo[1,2-b]pyridazin-3-yl)phenyl]-N′-(2,2,2-trifluoroethyl)urea]
O=C(NCC(F)(F)F)Nc1cccc(-c2cnc3cc(-c4cnn(C5CCN(C(=O)N6CCOCC6)CC5)c4)cnn23)c1 [Example 37, N-[3-(7-{1-[1-(morpholin-4-ylcarbonyl)piperidin-4-yl]-1H-pyrazol-4-yl}imidazo[1,2-b]pyridazin-3-yl)phenyl]-N′-(2,2,2-trifluoroethyl)urea]
O=C(NCC(F)(F)F)Nc1cccc(-c2cnc3cc(-c4cnn(C5CCN(C(=O)Nc6cccnc6)CC5)c4)cnn23)c1 [Example 38, N-Pyridin-3-yl-4-(4-{3-[3-({[(2,2,2-trifluoroethyl)amino]carbonyl}amino)phenyl]imidazo[1,2-b]pyridazin-7-yl}-1H-pyrazol-1-yl)piperidine-1-carboxamide]
O=C(NCC(F)(F)F)Nc1cccc(-c2cnc3cc(-c4cnn(C5CCN(C(=O)NCc6ccccc6)CC5)c4)cnn23)c1 [Example 39, N-Benzyl-4-(4-{3-[3-({[(2,2,2-trifluoroethyl)amino]carbonyl}amino)phenyl]imidazo[1,2-b]pyridazin-7-yl}-1H-pyrazol-1-yl)piperidine-1-carboxamide]
O=C(NCC(F)(F)F)Nc1cccc(-c2cnc3cc(-c4cnn(C5CCN(C(=O)NCC6CCCO6)CC5)c4)cnn23)c1 (centres unmarked) [Example 40, N-(tetrahydrofuran-2-ylmethyl)-4-(4-{3-[3-({[(2,2,2-trifluoroethyl)amino]carbonyl}amino)phenyl]imidazo[1,2-b]pyridazin-7-yl}-1H-pyrazol-1-yl)piperidine-1-carboxamide]
O=C(NCC(F)(F)F)Nc1cccc(-c2cnc3cc(-c4cnn(C5CCN(C(=O)CC6CC6)CC5)c4)cnn23)c1 [Example 41, N-[3-(7-{1-[1-(Cyclopropylacetyl)piperidin-4-yl]-1H-pyrazol-4-yl}imidazo[1,2-b]pyridazin-3-yl)phenyl]-N′-(2,2,2-trifluoroethyl)urea]
CC1(C(=O)N2CCC(n3cc(-c4cnn5c(-c6cccc(NC(=O)NCC(F)(F)F)c6)cnc5c4)cn3)CC2)CC1 [Example 42, N-{3-[7-(1-{1-[(1-Methylcyclopropyl)carbonyl]piperidin-4-yl}-1H-pyrazol-4-yl)imidazo[1,2-b]pyridazin-3-yl]phenyl}-N′-(2,2,2-trifluoroethyl)urea]
O=C(NCC(F)(F)F)Nc1cccc(-c2cnc3cc(-c4cnn(C5CCN(C(=O)C6(O)CC6)CC5)c4)cnn23)c1 [Example 43, N-{3-[7-(1-{1-[(1-hydroxycyclopropyl)carbonyl]piperidin-4-yl}-1H-pyrazol-4-yl)imidazo[1,2-b]pyridazin-3-yl]phenyl}-N′-(2,2,2-trifluoroethyl)urea]
N#CCC(=O)N1CCC(n2cc(-c3cnn4c(-c5cccc(NC(=O)NCC(F)(F)F)c5)cnc4c3)cn2)CC1 [Example 44, N-[3-(7-{1-[1-(Cyanoacetyl)piperidin-4-yl]-1H-pyrazol-4-yl}imidazo[1,2-b]pyridazin-3-yl)phenyl]-N′-(2,2,2-trifluoroethyl)urea]
N#CC1(C(=O)N2CCC(n3cc(-c4cnn5c(-c6cccc(NC(=O)NCC(F)(F)F)c6)cnc5c4)cn3)CC2)CC1 [Example 45, N-{3-[7-(1-{1-[(1-Cyanocyclopropyl)carbonyl]piperidin-4-yl}-1H-pyrazol-4-yl)imidazo[1,2-b]pyridazin-3-yl]phenyl}-N′-(2,2,2-trifluoroethyl)urea]
O=C(NCC(F)(F)F)Nc1cccc(-c2cnc3cc(-c4cnn(C5CCN(C(=O)CCC6CC6)CC5)c4)cnn23)c1 [Example 46, N-[3-(7-{1-[1-(3-Cyclopropylpropanoyl)piperidin-4-yl]-1H-pyrazol-4-yl}imidazo[1,2-b]pyridazin-3-yl)phenyl]-N′-(2,2,2-trifluoroethyl)urea]
O=C(NCC(F)(F)F)Nc1cccc(-c2cnc3cc(-c4cnn(C5CCN(C(=O)C6CC(O)C6)CC5)c4)cnn23)c1 (centres unmarked) [Example 47, N-{3-[7-(1-{1-[(3-hydroxycyclobutyl)carbonyl]piperidin-4-yl}-1H-pyrazol-4-yl)imidazo[1,2-b]pyridazin-3-yl]phenyl}-N′-(2,2,2-trifluoroethyl)urea]
O=C(NCC(F)(F)F)Nc1cccc(-c2cnc3cc(-c4cnn(C5CCN(C(=O)C6CCOC6)CC5)c4)cnn23)c1 (centres unmarked) [Example 48, N-[3-(7-{1-[1-(tetrahydrofuran-3-ylcarbonyl)piperidin-4-yl]-1H-pyrazol-4-yl}imidazo[1,2-b]pyridazin-3-yl)phenyl]-N′-(2,2,2-trifluoroethyl)urea]
O=C(NCC(F)(F)F)Nc1cccc(-c2cnc3cc(-c4cnn(C5CCN(C(=O)C(O)C(F)(F)F)CC5)c4)cnn23)c1 (centres unmarked) [Example 49, N-(2,2,2-trifluoroethyl)-N′-[3-(7-{1-[1-(3,3,3-trifluoro-2-hydroxypropanoyl)piperidin-4-yl]-1H-pyrazol-4-yl}imidazo[1,2-b]pyridazin-3-yl)phenyl]urea]
